Reference: publication PMC10175918 (Communications Biology, 2023)
Where two headings read alike, the source gives them in different places.

Legend:
Assay in all cases: TGFα-shedding assay-based GPCR screening with chimeric Gα subunit proteins
Format in all cases: cell-based
348 GPCRs [1] = target: T1, 348 GPCRs (Homo sapiens, UniProt Q92847); conditions: 10µM, Favipiravir 100μM
T1 construct: expressed in transfected cells; host or cells: HEK293A

348 GPCRs [2] = target: T2, 348 GPCRs (Homo sapiens, UniProt P08908); conditions: 10µM, Favipiravir 100μM
T2 construct: expressed in transfected cells; host or cells: HEK293A
T2 sequence (P08908 1-422): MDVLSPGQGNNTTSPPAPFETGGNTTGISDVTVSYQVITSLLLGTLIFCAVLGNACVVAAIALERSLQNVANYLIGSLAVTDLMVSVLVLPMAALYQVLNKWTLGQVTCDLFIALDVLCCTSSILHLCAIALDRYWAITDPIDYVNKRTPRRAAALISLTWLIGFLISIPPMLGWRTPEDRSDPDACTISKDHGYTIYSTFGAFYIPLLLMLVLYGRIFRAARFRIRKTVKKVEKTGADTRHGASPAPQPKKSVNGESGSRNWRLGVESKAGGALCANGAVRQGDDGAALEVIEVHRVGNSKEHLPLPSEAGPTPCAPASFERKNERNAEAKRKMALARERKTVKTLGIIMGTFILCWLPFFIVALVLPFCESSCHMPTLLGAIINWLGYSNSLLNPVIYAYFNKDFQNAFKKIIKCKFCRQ

348 GPCRs [3] = target: T3, 348 GPCRs (Homo sapiens, UniProt P50052); conditions: 10µM, Favipiravir 100μM
T3 construct: expressed in transfected cells; host or cells: HEK293A
T3 sequence (P50052 1-363): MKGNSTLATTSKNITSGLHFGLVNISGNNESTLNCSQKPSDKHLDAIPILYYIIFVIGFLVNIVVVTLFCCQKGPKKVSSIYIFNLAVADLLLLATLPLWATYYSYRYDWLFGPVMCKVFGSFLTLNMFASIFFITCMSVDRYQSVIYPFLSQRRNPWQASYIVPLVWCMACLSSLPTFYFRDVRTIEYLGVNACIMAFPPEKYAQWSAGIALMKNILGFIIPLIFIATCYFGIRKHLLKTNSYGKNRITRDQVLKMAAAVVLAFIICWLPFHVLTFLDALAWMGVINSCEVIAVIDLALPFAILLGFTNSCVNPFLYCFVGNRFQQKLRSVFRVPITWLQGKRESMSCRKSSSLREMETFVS

348 GPCRs [4] = target: T4, 348 GPCRs (Homo sapiens, UniProt Q86SP6); conditions: 10µM, Favipiravir 100μM
T4 construct: expressed in transfected cells; host or cells: HEK293A
T4 sequence (Q86SP6 1-731): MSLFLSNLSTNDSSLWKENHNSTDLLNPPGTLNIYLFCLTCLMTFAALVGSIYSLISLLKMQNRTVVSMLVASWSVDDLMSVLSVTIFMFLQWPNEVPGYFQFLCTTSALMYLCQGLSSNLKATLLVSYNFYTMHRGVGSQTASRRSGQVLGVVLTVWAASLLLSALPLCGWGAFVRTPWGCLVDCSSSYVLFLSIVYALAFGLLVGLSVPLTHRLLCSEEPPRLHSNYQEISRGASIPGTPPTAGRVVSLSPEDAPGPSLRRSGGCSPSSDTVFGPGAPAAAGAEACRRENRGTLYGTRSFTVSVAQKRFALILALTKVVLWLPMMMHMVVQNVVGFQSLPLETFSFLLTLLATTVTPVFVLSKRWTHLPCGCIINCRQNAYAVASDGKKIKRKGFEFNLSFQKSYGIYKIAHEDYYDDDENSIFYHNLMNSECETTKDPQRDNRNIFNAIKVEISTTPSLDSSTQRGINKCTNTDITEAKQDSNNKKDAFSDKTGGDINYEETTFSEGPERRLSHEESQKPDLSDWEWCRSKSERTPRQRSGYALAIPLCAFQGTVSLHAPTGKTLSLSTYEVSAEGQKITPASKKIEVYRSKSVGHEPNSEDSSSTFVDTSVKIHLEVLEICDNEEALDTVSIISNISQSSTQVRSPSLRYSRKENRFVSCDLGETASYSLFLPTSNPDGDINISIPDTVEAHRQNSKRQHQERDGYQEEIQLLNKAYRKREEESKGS

348 GPCRs [5] = target: T5, 348 GPCRs (Homo sapiens, UniProt P47900); conditions: GPCR P2Y1 (purinergic receptor P2Y, G-protein coupled, 1)
T5 construct: expressed in transfected cells; host or cells: HEK293A
T5 sequence (P47900 whole entry): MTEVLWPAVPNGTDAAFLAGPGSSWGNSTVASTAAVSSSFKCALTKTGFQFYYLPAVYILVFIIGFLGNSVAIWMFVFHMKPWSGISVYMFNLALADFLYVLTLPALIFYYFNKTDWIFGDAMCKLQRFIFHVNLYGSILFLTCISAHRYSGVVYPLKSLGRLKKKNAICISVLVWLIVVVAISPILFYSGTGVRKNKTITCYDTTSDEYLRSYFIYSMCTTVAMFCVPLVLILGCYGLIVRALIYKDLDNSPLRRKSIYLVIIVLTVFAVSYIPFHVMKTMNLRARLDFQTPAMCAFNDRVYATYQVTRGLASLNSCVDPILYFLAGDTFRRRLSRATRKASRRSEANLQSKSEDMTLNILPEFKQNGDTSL

348 GPCRs [6] = target: T6, 348 GPCRs (Homo sapiens, UniProt O43194)
T6 construct: expressed in transfected cells; host or cells: HEK293A
T6 sequence (O43194 1-453): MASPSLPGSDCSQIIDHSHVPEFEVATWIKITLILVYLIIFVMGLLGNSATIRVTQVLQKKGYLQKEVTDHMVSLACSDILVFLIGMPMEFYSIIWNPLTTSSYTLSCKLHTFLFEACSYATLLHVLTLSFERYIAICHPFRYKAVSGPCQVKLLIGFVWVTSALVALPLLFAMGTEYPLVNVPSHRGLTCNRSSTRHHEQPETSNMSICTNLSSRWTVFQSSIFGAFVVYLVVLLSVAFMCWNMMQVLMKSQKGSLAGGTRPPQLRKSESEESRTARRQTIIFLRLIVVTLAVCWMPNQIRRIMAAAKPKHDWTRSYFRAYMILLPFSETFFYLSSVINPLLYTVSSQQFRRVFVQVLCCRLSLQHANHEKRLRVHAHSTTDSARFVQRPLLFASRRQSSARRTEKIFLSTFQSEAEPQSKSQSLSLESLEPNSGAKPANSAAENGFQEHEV

348 GPCRs [7] = target: T7, 348 GPCRs (Homo sapiens, UniProt P28336); conditions: 10µM, Favipiravir 100μM
T7 construct: expressed in transfected cells; host or cells: HEK293A
T7 sequence (P28336 whole entry): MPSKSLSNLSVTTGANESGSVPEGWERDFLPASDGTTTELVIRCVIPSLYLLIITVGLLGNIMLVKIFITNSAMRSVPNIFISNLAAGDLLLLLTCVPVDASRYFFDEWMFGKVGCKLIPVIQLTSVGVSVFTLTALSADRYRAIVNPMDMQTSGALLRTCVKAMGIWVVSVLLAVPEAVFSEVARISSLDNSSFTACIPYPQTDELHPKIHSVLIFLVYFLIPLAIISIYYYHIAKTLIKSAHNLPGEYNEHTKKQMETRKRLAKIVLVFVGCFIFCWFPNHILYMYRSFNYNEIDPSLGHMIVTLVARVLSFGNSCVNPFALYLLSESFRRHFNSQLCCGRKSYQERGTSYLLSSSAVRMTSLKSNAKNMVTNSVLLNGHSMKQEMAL

348 GPCRs [8] = target: T8, 348 GPCRs (Homo sapiens, UniProt O95800); conditions: 10µM, Favipiravir 100μM
T8 construct: expressed in transfected cells; host or cells: HEK293A
T8 sequence (O95800 whole entry): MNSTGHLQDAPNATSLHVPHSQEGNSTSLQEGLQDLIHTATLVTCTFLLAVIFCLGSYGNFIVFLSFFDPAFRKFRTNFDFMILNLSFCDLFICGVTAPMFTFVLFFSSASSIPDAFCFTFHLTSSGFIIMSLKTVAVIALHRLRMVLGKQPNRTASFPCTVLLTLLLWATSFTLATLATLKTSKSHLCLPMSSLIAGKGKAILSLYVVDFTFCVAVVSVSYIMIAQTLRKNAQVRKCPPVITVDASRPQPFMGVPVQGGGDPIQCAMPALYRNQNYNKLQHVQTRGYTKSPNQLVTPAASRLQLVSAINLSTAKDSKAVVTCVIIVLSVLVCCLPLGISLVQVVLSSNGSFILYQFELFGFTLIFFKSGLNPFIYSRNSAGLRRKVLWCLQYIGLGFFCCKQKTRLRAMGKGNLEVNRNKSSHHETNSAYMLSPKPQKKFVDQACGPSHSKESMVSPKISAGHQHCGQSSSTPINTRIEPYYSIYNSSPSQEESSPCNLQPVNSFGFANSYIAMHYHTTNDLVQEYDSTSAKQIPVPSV

[9] = GHSR (growth hormone secretagogue receptor), read-out: % GPCR activation compared to TPA
[10] = 5-HT1A (5-hydroxytryptamine receptor 1A), read-out: % GPCR activation compared to TPA
[11] = AGTR2 (angiotensin II receptor, type 2), read-out: % GPCR activation compared to TPA
[12] = GPR149 (G protein-coupled receptor 149), read-out: % GPCR activation compared to TPA
[13] = GPCR GPR39 (G Protein-Coupled Receptor 39), read-out: % GPCR activation compared to TPA
[14] = NMBR (neuromedin B receptor), read-out: % GPCR activation compared to TPA
[15] = GPR75 (G protein-coupled receptor 75), read-out: % GPCR activation compared to TPA
[16] = read-out: % GPCR activation compared to TPA, GHSR (growth hormone secretagogue receptor)
[17] = read-out: % GPCR activation compared to TPA, 5-HT1A (5-hydroxytryptamine receptor 1A)
[18] = read-out: % GPCR activation compared to TPA, AGTR2 (angiotensin II receptor, type 2)
[19] = read-out: % GPCR activation compared to TPA, GPR149 (G protein-coupled receptor 149)
[20] = read-out: % GPCR activation compared to TPA, GPCR GPR39 (G Protein-Coupled Receptor 39)
[21] = read-out: % GPCR activation compared to TPA, NMBR (neuromedin B receptor)
[22] = read-out: % GPCR activation compared to TPA, GPR75 (G protein-coupled receptor 75)

T1 sequence (Q92847 whole entry): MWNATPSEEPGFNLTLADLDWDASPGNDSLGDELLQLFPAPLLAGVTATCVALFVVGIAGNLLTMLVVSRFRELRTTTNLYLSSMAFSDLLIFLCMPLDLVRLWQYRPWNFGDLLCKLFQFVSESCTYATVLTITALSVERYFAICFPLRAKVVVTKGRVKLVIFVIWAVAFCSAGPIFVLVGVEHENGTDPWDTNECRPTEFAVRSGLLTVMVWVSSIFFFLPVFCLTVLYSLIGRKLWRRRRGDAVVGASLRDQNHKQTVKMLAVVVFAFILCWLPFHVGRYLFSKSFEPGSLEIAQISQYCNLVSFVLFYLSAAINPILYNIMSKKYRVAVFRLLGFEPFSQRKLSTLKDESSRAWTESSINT

Row | activation at 10 µM (348 GPCRs [1]; [9]) [%] | activation at 10 µM (348 GPCRs [2]; [10]) [%] | activation at 10 µM (348 GPCRs [3]; [11]) [%] | activation at 100 µM (348 GPCRs [4]; [12]) [%] | activation at 10 µM (348 GPCRs [6]; [13]) [%] | activation at 10 µM (348 GPCRs [7]; [14]) [%] | activation at 10 µM (348 GPCRs [8]; [15]) [%] | % GPCR activation compared to TPA (348 GPCRs [5]; 100μM) [%] | activation at 100 µM (348 GPCRs [6]; GPCR GPR39 (G Protein-Coupled Receptor 39), 100μM, read-out: % GPCR activation compared to TPA) [%] | SMILES | % GPCR activation compared to TPA (348 GPCRs [5]; 10µM) [%] | activation at 10 µM (348 GPCRs [1]; [16]) [%] | activation at 10 µM (348 GPCRs [2]; [17]) [%] | activation at 10 µM (348 GPCRs [3]; [18]) [%] | activation at 100 µM (348 GPCRs [4]; [19]) [%] | activation at 10 µM (348 GPCRs [6]; [20]) [%] | activation at 10 µM (348 GPCRs [7]; [21]) [%] | activation at 10 µM (348 GPCRs [8]; [22]) [%]
1 | -4.16 | -0.48 | 0.337 | -0.814 | -9.02 | -1.1 | 2.27 |  |  | N#C[C@@]1(c2ccc3c(N)ncnn23)O[C@H](CO)[C@@H](O)[C@H]1O [GS441524] | -0.4592 |  |  |  |  |  |  | 
2 | -3.33 | -0.504 | 0.741 | 0.0439 |  | -0.624 | 6.14 | 0.4296 | -6.36 | NC(=O)c1nc(F)cnc1O [favipiravir, 6-fluoro-3-hydroxy-2-pyrazinecarboxamide] |  |  |  |  |  |  |  | 
3 | 0.166 | -1.27 | 0.537 | -41.7 | -11.5 | 0.279 | -9.47 |  |  | CC(C)C(=O)OC[C@H]1O[C@@H](n2ccc(NO)nc2=O)[C@H](O)[C@@H]1O [molnupiravir] | -11.8258 |  |  |  |  |  |  | 
4 |  |  |  |  |  |  |  |  |  | CCC(CC)COC(=O)[C@H](C)N[P@](=O)(OC[C@H]1O[C@@](C#N)(c2ccc3c(N)ncnn23)[C@H](O)[C@@H]1O)Oc1ccccc1 [remdesivir] | 11.0377 | 12.2 | 1.91 | 0.676 | -0.636 | 2.25 | 0.461 | 4.18
5 |  |  |  |  |  |  |  |  |  | CC(C)OC(=O)[C@H](C)N[P@](=O)(OC[C@H]1O[C@@H](n2ccc(=O)[nH]c2=O)[C@](C)(F)[C@@H]1O)Oc1ccccc1 [sofosbuvir] | -4.632 | -0.354 | -0.274 | 1.67 | -7.06 | -4.93 | -0.697 | -12.7
